# Laboratory results taken from ChEMBL document CHEMBL1201862, “PubChem BioAssay data set” (2004).
# Activity calls are given as the source filed them.
# Tests used:
# [1] = intracellular Trypanosoma cruzi inhibitors in host cells – cell-based, plate reader, cherry-pick samples, set 3, dose response (AID 651818); type: functional;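 note: compounds incubated with infected cells for about four days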
# Protein Wnt-3a = Protein Wnt-3a (Mus musculus, UniProt P27467); experiment: Wnt3a-driven reporter signaling inhibition, dose response, selectivity assay for Gli-SUFU antagonist project, Wnt-LIGHT cells, luminescence (AID 651570); type: functional; details: read-out: IC50_Mean;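 note: Wnt-LIGHT reporter cells stimulated with conditioned medium from Wnt3a-producing cells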
# Sequence of Protein Wnt-3a (P27467 whole entry): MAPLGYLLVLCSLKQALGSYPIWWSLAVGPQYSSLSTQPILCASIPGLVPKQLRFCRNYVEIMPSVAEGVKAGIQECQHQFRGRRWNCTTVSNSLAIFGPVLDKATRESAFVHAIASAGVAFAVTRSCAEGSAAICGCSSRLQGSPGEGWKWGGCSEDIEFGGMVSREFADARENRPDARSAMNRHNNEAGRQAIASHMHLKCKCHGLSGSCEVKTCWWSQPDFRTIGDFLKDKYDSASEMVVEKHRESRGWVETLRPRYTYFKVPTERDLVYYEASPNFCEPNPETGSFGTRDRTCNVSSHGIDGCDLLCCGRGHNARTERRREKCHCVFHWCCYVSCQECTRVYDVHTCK
# [2] = biological target: 26S proteasome non-ATPase regulatory subunit 14 (Homo sapiens, UniProt O00487); experiment: inhibition of proteasome subunit RPN11 – biochemical, fluorescence polarization, uHTS hits, confirmation (AID 602368); type: functional
# Sequence of 26S proteasome non-ATPase regulatory subunit 14 (O00487 whole entry): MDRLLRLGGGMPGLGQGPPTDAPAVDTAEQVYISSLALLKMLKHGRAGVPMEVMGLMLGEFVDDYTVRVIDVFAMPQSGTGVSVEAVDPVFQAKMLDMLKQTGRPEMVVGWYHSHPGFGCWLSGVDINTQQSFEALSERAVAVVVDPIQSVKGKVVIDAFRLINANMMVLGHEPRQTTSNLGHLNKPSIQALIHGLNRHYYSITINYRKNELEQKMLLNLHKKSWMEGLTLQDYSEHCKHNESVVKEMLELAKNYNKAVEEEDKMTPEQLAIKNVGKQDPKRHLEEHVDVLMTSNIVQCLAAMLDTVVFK
# [3] = nonselective inhibitors of cellular cAMP signaling, dose response, counter-screen for MC4R biased antagonist project, cell-based, TR-FRET cAMP detection (AID 602305); type: functional;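 note: U2OS cells stimulated with forskolin near its EC80 as the cAMP inducer; potency is for inhibition of forskolin-stimulated cAMP signaling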
# [4] = biological target: T1, Carboxy-terminal domain RNA polymerase II polypeptide A small phosphatase 1 (Homo sapiens, UniProt Q9GZU7); experiment: inhibitors of CTDSP1, concentration-response testing, biochemical assay, absorbance-based, actives from ultra-high-throughput screening (AID 540297); type: functional
# T1 sequence (Q9GZU7 whole entry): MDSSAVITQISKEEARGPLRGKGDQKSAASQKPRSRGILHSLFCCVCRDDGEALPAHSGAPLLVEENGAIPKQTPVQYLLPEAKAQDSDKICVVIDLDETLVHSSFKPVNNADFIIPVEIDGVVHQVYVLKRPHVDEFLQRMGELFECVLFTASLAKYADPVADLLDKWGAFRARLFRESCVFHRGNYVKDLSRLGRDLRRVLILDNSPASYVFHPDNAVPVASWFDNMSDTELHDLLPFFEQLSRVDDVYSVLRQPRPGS
# Prothrombin = Prothrombin (Bos taurus, UniProt P00735); experiment: thrombin inhibition, dose response, biochemical, fluorescence polarization, uHTS hits (AID 602369); type: functional
# Melanocortin receptor 4 [5] = biological target: T2, Melanocortin receptor 4 (Homo sapiens, UniProt P32245); experiment: MC4R antagonist potency on cAMP, dose response, cell-based, TR-FRET, biased antagonists (AID 602298); type: functional;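 note: antagonist potency against agonist-stimulated cAMP production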
# T2 sequence (P32245 whole entry): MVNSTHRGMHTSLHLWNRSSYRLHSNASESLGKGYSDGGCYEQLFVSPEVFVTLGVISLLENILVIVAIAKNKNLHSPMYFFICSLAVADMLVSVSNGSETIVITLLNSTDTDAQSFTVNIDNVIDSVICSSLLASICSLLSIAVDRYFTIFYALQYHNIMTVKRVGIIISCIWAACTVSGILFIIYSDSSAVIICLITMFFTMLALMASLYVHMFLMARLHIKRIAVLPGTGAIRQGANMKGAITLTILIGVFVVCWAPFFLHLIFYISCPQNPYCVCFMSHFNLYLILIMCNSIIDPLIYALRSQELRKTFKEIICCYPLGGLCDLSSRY
# [6] = biological target: 72 kDa type IV collagenase (Homo sapiens, UniProt P08253); experiment: Dose Response validation of uHTS RPN11 inhibitor hits using a MMP-2 Fluorescence assay.; type: functional
# Sequence of 72 kDa type IV collagenase (P08253 whole entry): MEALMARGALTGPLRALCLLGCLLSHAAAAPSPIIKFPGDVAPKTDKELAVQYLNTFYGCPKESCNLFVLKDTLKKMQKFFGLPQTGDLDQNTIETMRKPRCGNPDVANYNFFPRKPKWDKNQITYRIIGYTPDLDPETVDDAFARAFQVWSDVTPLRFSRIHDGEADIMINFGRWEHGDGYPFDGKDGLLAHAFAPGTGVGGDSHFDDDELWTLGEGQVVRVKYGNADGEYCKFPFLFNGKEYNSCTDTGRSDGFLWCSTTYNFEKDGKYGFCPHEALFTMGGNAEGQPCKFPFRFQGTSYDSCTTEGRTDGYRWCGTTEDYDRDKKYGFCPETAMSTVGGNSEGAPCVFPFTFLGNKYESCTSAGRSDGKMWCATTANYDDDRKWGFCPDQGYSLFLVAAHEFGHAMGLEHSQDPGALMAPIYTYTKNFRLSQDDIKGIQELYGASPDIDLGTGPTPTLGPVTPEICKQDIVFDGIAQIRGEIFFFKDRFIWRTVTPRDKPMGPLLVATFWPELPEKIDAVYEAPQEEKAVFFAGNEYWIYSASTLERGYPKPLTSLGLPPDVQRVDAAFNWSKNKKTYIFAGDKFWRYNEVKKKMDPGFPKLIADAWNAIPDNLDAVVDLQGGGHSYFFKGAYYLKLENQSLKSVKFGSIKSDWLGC
# [7] = biological target: T3, Endoribonuclease toxin MazF (Escherichia coli K-12, UniProt P0AE70); experiment: MazF toxin RNase activators, dose response, biochemical, fluorescence, single-stranded RNA substrate, uHTS hits (AID 588481); type: functional
# T3 sequence (P0AE70 whole entry): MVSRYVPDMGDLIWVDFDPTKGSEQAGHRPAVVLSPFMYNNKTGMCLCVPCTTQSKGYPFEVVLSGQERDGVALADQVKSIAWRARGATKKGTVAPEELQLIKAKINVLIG
# [8] = biological target: T3, Endoribonuclease toxin MazF; experiment: fluorescent RNA oligo signal without MazF, dose response, counter-screen for MazEF activator project, biochemical, fluorescence, single-stranded RNase substrate (AID 588502); type: functional
# [9] = HepG2 cell cytotoxicity, dose response, cytotoxicity control for Shn3 inhibitor project, CellTiter-Glo, cherry-picked (AID 624134); type: functional, cell-based
# HEK293 = experiment: inhibitors of LMP1-driven NF-kB reporter, dose response, cell-based, HEK293, luciferase, cherry-pick (AID 588343); type: functional; details: Homo sapiens
# [10] = control 3'UTR Renilla luciferase suppression, dose response, counter-screen for Shn3 inhibitor project, cell-based, Clone20-Shn3RL, cherry-picked (AID 624133); type: functional
# INS1 = experiment: beta cell apoptosis inhibitors, cytokine rescue, dose response, luminescence, retest (AID 449756); type: functional, cell-based; details: Rattus norvegicus;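 note: cell death triggered by IL-1 beta plus TNF-alpha plus IFN-gamma mixture; protective hits raise ATP signal compared with cytokine alone wells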
# [11] = biological target: T4, High affinity choline transporter 1 (Homo sapiens, UniProt Q9GZV3); experiment: CHT inhibitors, dose response, cell-based, 5-point CRC, membrane potential dye (AID 504840); type: functional
# T4 sequence (Q9GZV3 whole entry): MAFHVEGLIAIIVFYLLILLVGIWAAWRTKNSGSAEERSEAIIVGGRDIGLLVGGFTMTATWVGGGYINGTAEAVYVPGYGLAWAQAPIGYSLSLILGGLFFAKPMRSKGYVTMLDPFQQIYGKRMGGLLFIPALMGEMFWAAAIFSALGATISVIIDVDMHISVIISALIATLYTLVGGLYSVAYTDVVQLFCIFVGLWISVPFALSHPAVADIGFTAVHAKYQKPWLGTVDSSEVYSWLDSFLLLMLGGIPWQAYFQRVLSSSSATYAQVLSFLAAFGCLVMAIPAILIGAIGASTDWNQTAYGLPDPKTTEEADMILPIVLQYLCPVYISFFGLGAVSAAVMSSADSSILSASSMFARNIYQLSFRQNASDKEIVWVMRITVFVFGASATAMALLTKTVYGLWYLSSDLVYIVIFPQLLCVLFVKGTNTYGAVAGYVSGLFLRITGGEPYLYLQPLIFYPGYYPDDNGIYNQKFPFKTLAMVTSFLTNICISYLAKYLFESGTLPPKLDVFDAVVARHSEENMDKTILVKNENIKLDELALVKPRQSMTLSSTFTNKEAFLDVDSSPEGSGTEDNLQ
# [12] = Shn3 3'UTR reporter inhibitors, dose response, cell-based, Clone20 osteoblasts, firefly luciferase, cherry-picked (AID 624132); type: functional;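 note: firefly luciferase luminescence from reporter carrying the Shn3 3'UTR in osteoblasts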
# Nonstructural protein 1 = Nonstructural protein 1 (Influenza A virus, UniProt Q194T2); type: functional, Influenza A virus (A/California/07/2009(H1N1))
# Sequence of Nonstructural protein 1 (Q194T2 whole entry): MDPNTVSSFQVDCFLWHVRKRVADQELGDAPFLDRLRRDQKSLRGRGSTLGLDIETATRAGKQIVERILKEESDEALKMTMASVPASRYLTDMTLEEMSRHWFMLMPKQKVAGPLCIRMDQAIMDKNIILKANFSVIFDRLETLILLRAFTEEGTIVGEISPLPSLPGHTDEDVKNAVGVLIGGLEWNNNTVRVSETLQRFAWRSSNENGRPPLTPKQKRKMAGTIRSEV
# [13] = biological target: T5, Heat shock factor protein 1 (Mus musculus, UniProt P38532); experiment: inhibition of MG132-induced HSE-luciferase signal, confirmation, cell-based, NIH3T3, luminescence, dose retest (AID 2382); type: functional;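 note: NIH3T3 fibroblasts with HSF1-driven luciferase reporter stressed by proteasome inhibitor MG132; luminescence from HSF1-driven luciferase expression after 8 hours of MG132 stress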
# T5 sequence (P38532 whole entry): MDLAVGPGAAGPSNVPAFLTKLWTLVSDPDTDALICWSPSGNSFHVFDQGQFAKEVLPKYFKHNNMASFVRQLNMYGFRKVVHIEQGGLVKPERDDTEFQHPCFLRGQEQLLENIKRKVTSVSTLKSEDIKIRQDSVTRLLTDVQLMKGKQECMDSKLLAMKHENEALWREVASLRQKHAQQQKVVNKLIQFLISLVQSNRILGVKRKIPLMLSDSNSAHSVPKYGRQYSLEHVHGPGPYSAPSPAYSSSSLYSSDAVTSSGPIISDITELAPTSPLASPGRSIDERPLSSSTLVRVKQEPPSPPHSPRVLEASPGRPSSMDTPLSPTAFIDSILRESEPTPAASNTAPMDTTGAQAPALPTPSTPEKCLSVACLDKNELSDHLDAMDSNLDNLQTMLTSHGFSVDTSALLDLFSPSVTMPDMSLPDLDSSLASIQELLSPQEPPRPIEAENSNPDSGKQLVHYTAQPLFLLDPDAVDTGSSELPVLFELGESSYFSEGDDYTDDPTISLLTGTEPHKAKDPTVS
# [14] = AlphaScreen signal interference compounds, dose response, artefact control for ARNT-TACC3 interaction inhibitor project, biochemical, luminescence, cherry-pick (AID 651705); type: functional;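 note: AlphaScreen bead proximity signal that flags compounds interfering with the detection technology; potency reflects signal decrease which marks the compound as an assay artifact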
# [15] = biological target: T6, Probable nicotinate-nucleotide adenylyltransferase (Staphylococcus aureus (strain N315), UniProt P65502); type: functional, Staphylococcus aureus subsp. aureus N315;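 for IC50 Mean: confirmatory dose-response retesting of NadD inhibitor hits first found in an ultra-high-throughput screen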
# T6 sequence (P65502 whole entry): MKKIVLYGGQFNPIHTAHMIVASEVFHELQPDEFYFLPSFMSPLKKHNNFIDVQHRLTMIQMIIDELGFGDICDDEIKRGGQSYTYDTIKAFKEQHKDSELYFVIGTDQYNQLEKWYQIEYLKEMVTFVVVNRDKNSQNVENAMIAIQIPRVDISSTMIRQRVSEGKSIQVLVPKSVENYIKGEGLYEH
# [16] = Luminescence Cell-Based Dose Confirmation HTS to Identify Activators of 5'UTR Stem-Loop Driven Alpha-Synuclein mRNA Translation in H4 Neuroglioblastoma Cells. [Related pubchem assays: 1829 (Project Summary), 1814 (Primary HTS)]; type: functional
# [17] = Luminescence Cell-Based Dose Response HTS to Identify Activators of Luciferase Translation or Activity in H4 […] Cells. [Related pubchem assays: 1829 (Project Summary), 1814 (Primary HTS)]; type: functional
# [18] = biological target: T6, Probable nicotinate-nucleotide adenylyltransferase; type: functional, Staphylococcus aureus subsp. aureus N315; details: read-out: IC50_Mean
# H4 = experiment: Luminescence Cell-Based Dose Response HTS to Identify Activators of 5'UTR Stem-Loop Driven Prion Protein mRNA Translation in H4 Neuroglioblastoma Cells. [Related pubchem assays: 1829 (Project Summary), 1814 (Primary HTS)]; type: functional; details: Homo sapiens
# Melanocortin receptor 4 [19] = biological target: T2, Melanocortin receptor 4; type: functional, cell-based
compound,measurement,setting,value
CC(C)NC(=O)Nc1cccc2c1O[C@H](CN(C)Cc1ccc(C(=O)Nc3ccccc3N)cc1)[C@H](C)CN([C@@H](C)CO)C2=O,AC50,[1],2.95 µM (active)
Cn1c(=O)c2c(nc(NCc3ccco3)n2Cc2ccc(Cl)cc2Cl)n(C)c1=O,IC50,Protein Wnt-3a,1.94 µM (active)
C=CCn1/c(=N/C(=O)c2sc3ccccc3c2Cl)sc2cc(S(N)(=O)=O)ccc21,IC50,[2],12.5 µM (active)
same,IC50,[3],> 64.6 µM (inactive)
same,IC50,[4],4.39 µM (active)
same,IC50,Prothrombin,> 100 µM (inactive)
same,IC50,Melanocortin receptor 4 [5],30.7 µM (inactive)
same,IC50,[6],> 100 µM (inactive)
Nc1cc(SCc2ccc(Cl)cc2Cl)ncn1,EC50,[7],> 99 µM (inactive)
same,EC50,[8],> 99 µM (inactive)
CCOC(=O)N1CCC(NC(=O)C2CCCN(Cc3nc(-c4cccc(Cl)c4)oc3C)C2)CC1 (configuration not stated),AC50,[9],55.4 µM (active)
same,AC50,HEK293,2.51 µM (active)
same,AC50,[10],1.81 µM (active)
same,AC50,INS1,3.71 µM (active)
same,IC50,[11],6.92 µM (active)
same,AC50,[12],9.5 µM (active)
O=C(NCCCn1ccnc1)C(=O)NCC1OCCN1S(=O)(=O)c1cc(F)ccc1F (configuration not stated),IC50,Nonstructural protein 1,12.7 µM (active)
same,EC50,[13],128 µM (active)
same,AC50,[14],84.5 µM (active)
Cc1ccc(Nc2nc(Nc3ccc(C)cc3)nc(SC3=NCCS3)n2)cc1,IC50,[15],28.6 µM (active)
same,EC50,[16],> 120 µM (not active)
same,EC50,[17],> 120 µM (not active)
same,IC50,[18],53.6 µM (active)
same,EC50,H4,17.6 µM (active)
COc1ccc(Nc2nc3ccc(C)cc3cc2C#N)c(OC)c1,EC50,[7],34.1 µM (inactive)
same,EC50,[8],14.2 µM (active)
O=C1OC(c2ccccc2)(c2cc(Br)ccc2O)c2ccccc21 (configuration not stated),EC50,Melanocortin receptor 4 [19],> 89.2 µM (inactive)
